Reference: US20090246169A1, “INDOLOPYRIDINES AS EG5 KINESIN MODULATORS” (priority 2006, published 2009)

Each molecule was assayed on RKO p21 colon adenocarcinoma cells, uninduced (proliferating) (assay: Alamar Blue cell viability assay, RKO p21 uninduced (proliferating)). Details: Homo sapiens; anti-proliferative/cytotoxic activity, 72 hours, without Ponasterone A; read-out: −log EC50 [mol/l] RKO p21 uninduced (proliferating) (converted).
Assay type: cell-based
Description: The anti-proliferative/cytotoxic activity of the compounds described herein can be tested on subclones of RKO human colon adenocarcinoma cells (Schmidt et al., Oncogene 19, 2423-2429; 2000) using the Alamar Blue cell viability assay (described in O'Brien et al. Eur J Biochem 267, 5421-5426, 2000). The compounds are dissolved as 10 mM solutions in DMSO and subsequently diluted in semi-logarithmic steps. DMSO dilutions are further diluted 1:100 into Dulbecco's modified Eagle's medium (DMEM) containing 10% fetal calf serum to a final concentration twice as much as the final concentration in the test. RKO subclones are seeded into 96 well flat bottom plates at a density of 4000 cells per well in a volume of 50 μl per well. 24 hours after seeding the 50 μl each of the compound dilutions in DMEM medium are added into each well of the 96 well plate. Each compound dilution is tested as triplicates. Wells containing untreated control cells are filled with 50 μl DMEM medium containing 1% DMSO. The cells are then incubated with the substances for 72 hours at 37° C. in a humidified atmosphere containing 5% carbon dioxide. To determine the viability of the cells, 10 μl of an Alamar Blue solution (Biosource) are added and the fluorescence is measured at an extinction of 544 nm and an emission of 590 nm. For the calculation of the cell viability the emission value from untreated cells is set as 100% viability and the emission rates of treated cells are set in relation to the values of untreated cells. Viabilities are expressed as % values. The Graphpad Prism program is used for the calculation of EC50 values for anti-proliferative/cytotoxic activity out of the obtained dose-response curves.
To determine the cell cycle specific mode of action, subclones of RKO colon adenocarcinoma cells (RKOp21 or RKOp27 as described by Schmidt et al. in Oncogene 19, 2423-2429; 2000) are seeded into 96 well flat bottom plates at a density of 16000 cells per well in a volume of 50 μl per well in DMEM growth medium with 10% FCS containing 10 μM Ponasterone A. 24 hours after seeding the 50 μl each of the compound dilutions in DMEM medium are added into each well of the 96-well plate. Each compound dilution is tested as triplicates. Wells containing untreated control cells are filled with 50 μl DMEM medium containing 1% DMSO. The cells are then incubated with the substances for 72 hours at 37° C. in a humidified atmosphere containing 5% carbon dioxide. To determine the viability of the cells, 10 μl of an Alamar Blue solution (Biosource) are added and the fluorescence is measured at an extinction of 544 nm and an emission of 590 nm. For the calculation of the cell viability the emission value from untreated cells is set as 100% viability and the emission rates of treated cells are set in relation to the values of untreated cells. Viabilities are expressed as % values. The Graphpad Prism program (GraphPad Software, Inc) is used for the calculation of EC50 values out of the obtained dose-response curves. Viability is compared of proliferating cells grown in the absence of the inducer Ponasterone A, versus viability of cells arrested by the expression of ectopic p27Kip1 induced by Ponasterone A.
Representative values for anti-proliferation/cytotoxicity [measured as −log EC50 (mol/l)] determined in the aforementioned assays follow from the following tables B1 and B2, in which the numbers of the compounds correspond to the numbers of the examples.

Row | SMILES | EC50
1 | CCN(CCCN1C(=O)N2[C@H](c3ccccc3)c3[nH]c4ccc(OC)cc4c3C[C@@]2(C)C1=O)CCOC (racemic) [Example 56, (3aSR, 10RS)-2-{3-[Ethyl-(2-methoxy-ethyl)-amino]-propyl}-6-methoxy-3a-methyl-10-phenyl-3a,4,9,10-tetrahydro-2,9,10a-triaza-cyclopenta[b]fluorene-1,3-dione] | ≤ 1000 nM
2 | COc1ccc2[nH]c3c(c2c1)C[C@@]1(C)C(=O)N(CCN2CCN(C)CC2)C(=O)N1[C@@H]3c1ccccc1 (racemic) [Example 34, (3aSR, 10RS)-6-Methoxy-3a-methyl-2-[2-(4-methyl-piperazin-1-yl)-ethyl]-10-phenyl-3a,4,9,10-tetrahydro-2,9,10a-triaza-cyclopenta[b] fluorene-1,3-dione] | ≤ 1000 nM
3 | COc1ccc2[nH]c3c(c2c1)C[C@@]1(C)C(=O)N(CCCNC(C)(C)C)C(=O)N1[C@@H]3c1ccccc1 (racemic) [Example 76, (3aSR, 10RS)-2-(3-tert-Butylamino-propyl)-6-methoxy-3a-methyl-10-phenyl-3a,4,9,10-tetrahydro-2,9,10a-triaza-cyclopenta[b] fluorene-1,3-dione] | ≤ 1000 nM
4 | CCN(CC)CCN1C(=O)N2[C@H](c3ccccc3)c3[nH]c4ccc(OC)cc4c3C[C@@]2(C)C1=O (racemic) [Example 41, (3aSR, 10RS)-2-(2-Diethyl-amino-ethyl)-6-methoxy-3a-methyl-10-phenyl-3a,4,9,10-tetrahydro-2,9,10a-triaza-cyclopenta[b]fluorene-1,3-dione] | ≤ 1000 nM
5 | COc1ccc2[nH]c3c(c2c1)C[C@@]1(C)C(=O)N(CCCN2CCC2)C(=O)N1[C@@H]3c1ccccc1 (racemic) [Example 60, (3aSR, 10RS)-2-(3-Azetidin-1-yl-propyl)-6-methoxy-3a-methyl-10-phenyl-3a,4,9,10-tetrahydro-2,9,10a-triaza-cyclopenta[b]fluorene-1,3-dione] | ≤ 1000 nM
6 | COc1ccc2[nH]c3c(c2c1)C[C@@]1(C)C(=O)N(CCN2CCOCC2)C(=O)N1[C@@H]3c1ccccc1 (racemic) [Example 40, (3aSR, 10RS)-6-Methoxy-3a-methyl-2-(2-morpholin-4-yl-ethyl)-10-phenyl-3a,4,9,10-tetrahydro-2,9,10a-triaza-cyclopenta[b]fluorene-1,3-dione] | ≤ 1000 nM
7 | COc1ccc2[nH]c3c(c2c1)C[C@@]1(C)C(=O)N(CCCNC2CC2)C(=O)N1[C@@H]3c1ccccc1 (racemic) [Example 71, (3aSR, 10RS)-2-(3-Cyclo-propylamino-propyl)-6-methoxy-3a-methyl-10-phenyl-3a,4,9,10-tetrahydro-2,9,10a-triaza-cyclopenta[b] fluorene-1,3-dione] | ≤ 1000 nM
8 | COc1ccc2[nH]c3c(c2c1)C[C@@]1(C)C(=O)N(CCN2CCN(C(C)=O)CC2)C(=O)N1[C@@H]3c1ccccc1 (racemic) [Example 47, (3aSR, 10RS)-2-[2-(4-Acetyl-piperazin-1-yl)-ethyl]-6-methoxy-3a-methyl-10-phenyl-3a,4,9,10-tetrahydro-2,9,10a-triaza-cyclopenta[b] fluorene-1,3-dione] | ≤ 1000 nM
9 | COc1ccc2[nH]c3c(c2c1)C[C@@]1(C)C(=O)N(CCCN2CC=CCC2)C(=O)N1[C@@H]3c1ccccc1 (racemic) [Example 67, (3aSR, 10RS)-2-[3-(3,6-Dihydro-2H-pyridin-1-yl)-propyl]-6-methoxy-3a-methyl-10-phenyl-3a,4,9,10-tetra-hydro-2,9,10a-triaza-cyclo-penta[b]fluorene-1,3-dione] | ≤ 1000 nM
10 | COc1ccc2[nH]c3c(c2c1)C[C@@]1(C)C(=O)N(CCN2CC=CCC2)C(=O)N1[C@@H]3c1ccccc1 (racemic) [Example 33, (3aSR, 10RS)-2-[2-(3,6-Dihydro-2H-pyridin-1-yl)-ethyl]-6-methoxy-3a-methyl-10-phenyl-3a,4,9,10-tetra-hydro-2,9,10a-triaza-cyclo-penta[b]fluorene-1,3-dione] | ≤ 1000 nM
